Assay results from ChEMBL document CHEMBL2074171, “Studies on intestinal absorption of sulpiride (1): carrier-mediated uptake of sulpiride in the human intestinal cell line Caco-2” (Biol Pharm Bull, 2002).
Peptide text beside a SMILES is read from it.

Assays:
[1] = molecular target: T1, Solute carrier family 15 member 1 (Homo sapiens) (UniProt P46059); assay: TP_TRANSPORTER: inhibition of Sulpiride uptake (Surpiride: 100 uM, Gly-Sar: 1000 uM) in Caco-2 cells; format: functional, cell-based; set-up: scale not given: the % may be the effect or the level left
T1 sequence (whole entry): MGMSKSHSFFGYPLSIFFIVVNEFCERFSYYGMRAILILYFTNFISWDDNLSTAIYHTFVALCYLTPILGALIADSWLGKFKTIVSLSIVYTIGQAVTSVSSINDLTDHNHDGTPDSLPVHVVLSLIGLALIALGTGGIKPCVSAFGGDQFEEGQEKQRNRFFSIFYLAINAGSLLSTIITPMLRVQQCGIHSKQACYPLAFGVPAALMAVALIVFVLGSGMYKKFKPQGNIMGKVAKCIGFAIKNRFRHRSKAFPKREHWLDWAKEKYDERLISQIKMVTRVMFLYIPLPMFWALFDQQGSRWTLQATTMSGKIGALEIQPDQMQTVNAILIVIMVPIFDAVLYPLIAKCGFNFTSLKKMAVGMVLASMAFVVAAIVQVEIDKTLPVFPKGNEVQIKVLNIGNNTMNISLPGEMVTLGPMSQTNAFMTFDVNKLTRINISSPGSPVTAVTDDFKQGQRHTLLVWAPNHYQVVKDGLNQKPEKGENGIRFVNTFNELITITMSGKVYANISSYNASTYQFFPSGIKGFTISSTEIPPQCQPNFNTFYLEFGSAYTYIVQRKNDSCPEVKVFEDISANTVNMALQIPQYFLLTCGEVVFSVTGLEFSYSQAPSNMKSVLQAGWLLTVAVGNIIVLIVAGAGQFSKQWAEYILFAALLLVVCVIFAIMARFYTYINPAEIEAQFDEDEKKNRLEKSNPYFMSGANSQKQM

[2] = molecular target: T1, Solute carrier family 15 member 1 (Homo sapiens); assay: TP_TRANSPORTER: trans-stimulation of Sulpiride uptake (Surpiride: 100 uM, Gly-Sar: 1000 uM) in Caco-2 cells; format: functional, cell-based

Activity [1]: 65%
Activity [2]: 135%
Compound: CN(CC(=O)O)C(=O)CN (HELM PEPTIDE1{G.[Sar]}$$$$V2.0)
